Source: patent US11370798B2 (Vertex Pharmaceuticals Incorporated, priority 2012, dated 2022)

test system: HCT116 colorectal cancer cells; assay: Cisplatin sensitization assay (96 h cell viability MTS); assay type: cell-based; settings: compound and Cisplatin added simultaneously, Cisplatin sensitization value;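 also: Test-compound concentration that lowers the Cisplatin IC50 by a set fold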
Summary of the method: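 Viability read by MTS (1 h at 37° C) after 96 h co-exposure at 37° C, 5% CO2. Test compound and cisplatin were dosed simultaneously in a full concentration matrix, each 2-fold serially diluted from 10 μM final; sensitization values binned in μM.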

SMILES | Cisplatin Sensitization Assay
CNC(=O)C1CCN(c2c(F)cncc2NC(=O)c2c(N)nn3cc(F)cnc23)CC1 [I-G-33, 2-amino-6-fluoro-N-(5-fluoro-4-(4-(methylcarbamoyl)piperidin-1-yl)pyridin-3-yl)pyrazolo[1,5-a]pyrimidine-3-carboxamide] | +++ (Cisplatin sensitization value of <0.02 μM)
Cc1ccncc1NC(=O)c1c(N)nn2cc(F)cnc12 [I-C-4, 2-amino-6-fluoro-N-(4-methylpyridin-3-yl)pyrazolo[1,5-a]pyrimidine-3-carboxamide] | ++ (Cisplatin sensitization value>0.02 μM but <0.2 μM)
CN1CC[C@H](Oc2ccncc2NC(=O)c2c(N)nn3cc(Cl)cnc23)C1 [I-O-69, (S)-2-amino-6-chloro-N-(4-((1-methylpyrrolidin-3-yl)oxy)pyridin-3-yl)pyrazolo[1,5-a]pyrimidine-3-carboxamide] | ++ (Cisplatin sensitization value>0.02 μM but <0.2 μM)
CN1CCN2CCN(c3c(F)cncc3NC(=O)c3c(N)nn4cc(F)cnc34)CC2C1=O (stereo not drawn) [I-N-240, 2-amino-6-fluoro-N-(5-fluoro-4-(8-methyl-9-oxohexahydro-1H-pyrazino[1,2-a]pyrazin-2(6H)-yl)pyridin-3-yl)pyrazolo[1,5-a]pyrimidine-3-carboxamide] | ++ (Cisplatin sensitization value>0.02 μM but <0.2 μM)
CN(C)CC1(O)CCN(c2ccncc2NC(=O)c2c(N)nn3cc(Cl)cnc23)CC1 [I-N-36, 2-amino-6-chloro-N-(4-(4-((dimethylamino)methyl)-4-hydroxypiperidin-1-yl)pyridin-3-yl)pyrazolo[1,5-a]pyrimidine-3-carboxamide] | ++ (Cisplatin sensitization value>0.02 μM but <0.2 μM)
Nc1nn2cc(F)cnc2c1C(=O)Nc1cnccc1OC1CCN(C2COC2)CC1 [Compound I-0-11, 2-amino-6-fluoro-N-(4-((1-(oxetan-3-yl)piperidin-4-yl)oxy)pyridin-3-yl)pyrazolo[1,5-a]pyrimidine-3-carboxamide] | +++ (Cisplatin sensitization value of <0.02 μM)
COc1ccncc1NC(=O)c1c(N)nn2cc(Cl)cnc12 [I-O-57, 2-amino-6-chloro-N-(4-methoxypyridin-3-yl)pyrazolo[1,5-a]pyrimidine-3-carboxamide] | +++ (Cisplatin sensitization value of <0.02 μM)
Nc1nn2cc(Cl)cnc2c1C(=O)Nc1cnccc1OC1CNC1 [I-O-73, 2-amino-N-(4-(azetidin-3-yloxy)pyridin-3-yl)-6-chloropyrazolo[1,5-a]pyrimidine-3-carboxamide] | + (Cisplatin sensitization value>0.2 μM but <5 μM)
CS(=O)(=O)C1CN(C(=O)C2CCN(c3c(F)cncc3NC(=O)c3c(N)nn4cc(F)cnc34)CC2)C1 [I-G-86, 2-amino-6-fluoro-N-(5-fluoro-4-(4-(3-(methylsulfonyl)azetidine-1-carbonyl)piperidin-1-yl)pyridin-3-yl)pyrazolo[1,5-a]pyrimidine-3-carboxamide] | +++ (Cisplatin sensitization value of <0.02 μM)
COCCN1CCN(c2ccncc2NC(=O)c2c(N)nn3cc(Cl)cnc23)CC1 [I-N-60, 2-amino-6-chloro-N-(4-(4-(2-methoxyethyl)piperazin-1-yl)pyridin-3-yl)pyrazolo[1,5-a]pyrimidine-3-carboxamide] | +++ (Cisplatin sensitization value of <0.02 μM)
Nc1nn2cc(F)cnc2c1C(=O)Nc1cnccc1-n1ccnc1 [I-N-7, N-(4-(1H-imidazol-1-yl)pyridin-3-yl)-2-amino-6-fluoropyrazolo[1,5-a]pyrimidine-3-carboxamide] | ++ (Cisplatin sensitization value>0.02 μM but <0.2 μM)
CN(C)C1CCN(C2CCN(c3ccncc3NC(=O)c3c(N)nn4cc(Cl)cnc34)CC2)C1 (stereo not drawn) [I-N-106, 2-amino-6-chloro-N-(4-(4-(3-(dimethylamino)pyrrolidin-1-yl)piperidin-1-yl)pyridin-3-yl)pyrazolo[1,5-a]pyrimidine-3-carboxamide] | +++ (Cisplatin sensitization value of <0.02 μM)
